This is an account of results in PubChem BioAssay AID1996.

Values after ≈ are worked out from the molar mass of the structure shown.

For this series the following is noted: buffer; pH 7.4; 200.0 µM.
For `O=c1[nH]c2ccccc2nc1NCc1ccccc1`, the kinetic solubility (as a rule, solubility judged after dilution from a stock solution rather than from solid) turned out to be 3.9 µg/mL (≈ 15.5 µM).
As to `O=C(Nc1cccnc1)c1cc2c(s1)-c1ccccc1OC2`, the kinetic solubility came to 0.8 µg/mL (≈ 2.59 µM).
For `COc1nc(C)ccc1-c1noc(-c2cccnc2)n1`, the solubility (kinetic) is 14.6 µg/mL (≈ 54.4 µM).
In the case of `Cc1ccnc(NC(=O)c2ccc3c(c2)NC(=O)C(C)S3)c1` (configuration not stated) it was 6.6 µg/mL (≈ 21.1 µM); in that of `CS(=O)(=O)Nc1cccc(-c2cnc3ccccc3n2)c1`, more than 44.9 µg/mL.
In the case of `CC1(NC(=O)Nc2cccc3ccccc23)CCS(=O)(=O)C1` (configuration not stated) it was 43 µg/mL (≈ 135 µM).
Regarding `CCC(=O)N(CCC(c1ccco1)C(C)C)Cc1ccccc1` (configuration not stated), the solubility (kinetic) stood at 23.7 µg/mL (≈ 75.6 µM).
In turn, `CN(C)c1nc(Nc2ccc(F)cc2)nc(Oc2ccc(F)cc2)n1` came in with a solubility (kinetic) of less than 0.1 µg/mL.
On to `O=C(Nc1ccccc1)[C@@H]1CCCN1S(=O)(=O)c1ccc(Cl)cc1`, for which the kinetic solubility turned out to be 6.8 µg/mL (≈ 18.6 µM).
On to `Cc1nnc(NC(=O)C2CCCC2)s1`, for which the solubility (kinetic) was more than 31.7 µg/mL.
With `Cc1ccccc1Nc1ccc2nonc2c1[N+](=O)[O-]` the figure was 0.8 µg/mL (≈ 2.96 µM).
With `O=C(NCCCn1ccnc1)c1cc(-c2cccc(O)c2)on1` the figure was 39.6 µg/mL (≈ 127 µM); with `O=C(Nc1cccc(Cl)c1)c1cc(-c2ccco2)on1`, 0.8 µg/mL (≈ 2.77 µM); with `CC(NC(=O)c1ccc(Cl)cc1)C1CC2CCC1C2` (configuration not stated), 1.1 µg/mL (≈ 3.96 µM).
`CCOC(=O)C1=C(C)NC(C)=C(C(=O)OCC)C1C(=O)OCC(=O)NCc1ccccc1` had a kinetic solubility of more than 66.7 µg/mL.
With `Cc1cc(NC(=O)NC(=O)c2ccccc2)no1` the figure was 2.8 µg/mL (≈ 11.4 µM); with `O=C(CCNC(=O)c1ccc(Cl)cc1)NCc1ccco1`, more than 46 µg/mL.
In the case of `O=C(/C=C/c1ccc(Cl)c(Cl)c1)Nc1cccnc1` it was 0.6 µg/mL (≈ 2.05 µM); in that of `Cn1c(SCc2ccccc2Cl)nc2c1c(=O)[nH]c(=O)n2C`, 0.4 µg/mL (≈ 1.19 µM).
`NC1=NC(=O)/C(=C\c2ccsc2)S1` yielded a solubility (kinetic) of 28.6 µg/mL (≈ 136 µM).
With `CCn1c(=O)c([N+](=O)[O-])c(Cl)c2ccccc21` the figure was 3.3 µg/mL (≈ 13.1 µM); with `CCN1CCN(C(=O)C(=O)c2c(C)[nH]c3ccccc23)CC1`, 36.1 µg/mL (≈ 121 µM).
As for `COc1ccc(Br)c(C(=O)OCC(=O)N2CCc3ccccc32)c1`, the solubility (kinetic) amounted to 2.3 µg/mL (≈ 5.89 µM).
For `COc1cccc(CN(C)C(=O)c2ccc(N3CCCC3)c([N+](=O)[O-])c2)c1`, the solubility (kinetic) turned out to be 21.9 µg/mL (≈ 59.3 µM).
In the case of `CCCC(=O)NC(c1ccc(Cl)cc1)c1ccc2cccnc2c1O` (configuration not stated) it was 0.4 µg/mL (≈ 1.13 µM); in that of `Cc1ccc(C(=O)NC2CCCC2)s1`, 29.9 µg/mL (≈ 143 µM); in that of `Cc1cccc2cc(CNCc3ccccc3)c(Cl)nc12`, 3.8 µg/mL (≈ 12.8 µM).
With `C=CCNC(=S)NNC(=O)c1ccncc1` the figure was more than 35.4 µg/mL.
In the case of `Cc1ccc(/C=C/C(=O)OCC(=O)NCCc2ccc(S(N)(=O)=O)cc2)o1` it was more than 58.9 µg/mL.
The compound `COc1ccc(-c2cc(C(=O)NC3CCCC3)no2)cc1` returned a kinetic solubility of 0.4 µg/mL (≈ 1.4 µM).
In the case of `COc1ccc(-c2c(C#N)c(N)nc3c2CCC3)cc1` it was 0.3 µg/mL (≈ 1.13 µM); in that of `Clc1ccccc1-c1csc(Nc2cccnc2)n1`, 0.3 µg/mL (≈ 1.04 µM).
With `Cc1cccc(CCNCc2cc3cccc(C)c3[nH]c2=O)c1`, the solubility (kinetic) was determined as 45.9 µg/mL (≈ 150 µM).
In the case of `O=C(COC(=O)CCC(=O)c1cccs1)Nc1ccccc1C(F)(F)F` it was more than 57.8 µg/mL; in that of `O=C(NCCCCc1ccccc1)C1CCCC1`, 33.1 µg/mL (≈ 135 µM); in that of `COc1nc(N(C)C)nc(N(C#N)CCOC(C)=O)n1`, more than 42 µg/mL.
Consider `CSc1ncc(C(=O)Nc2cccc(C)c2C)c(C)n1`, for which the kinetic solubility was found to be 17 µg/mL (≈ 59.2 µM).
With `O=C(CCNC(=O)c1ccccc1)NCc1ccccc1F` the figure was more than 45 µg/mL.
In the case of `Cc1ccc([N+](=O)[O-])cc1N(CC(=O)NC1CCCC1)S(C)(=O)=O` it was more than 53.3 µg/mL; in that of `COC(=O)c1sccc1NC(=O)C1CCCCC1C(=O)O` (configuration not stated), 42.1 µg/mL (≈ 135 µM).
In turn, `CCn1c(=O)c(C(=O)NCc2ccc3c(c2)OCO3)c(O)c2ccccc21` displayed a solubility (kinetic) of less than 0.4 µg/mL.
In the case of `Clc1ccc(-c2cnc3n2CCCCC3)cc1` it was more than 37 µg/mL; in that of `Cc1ccc(C)c(NC(=O)CN(C)C(C)C(=O)N2CCCC2)c1` (configuration not stated), 42.1 µg/mL (≈ 133 µM); in that of `O=C(O)c1ccc(-n2cc(C(=O)c3ccccc3O)cn2)cc1`, more than 46.2 µg/mL.
In turn, `CCCn1c2c(c(=N)c3c1CCC3)CCC2.I` registered a solubility (kinetic) of more than 51.6 µg/mL.
In the case of `O=C(NCc1ccc(F)cc1)Nc1ccccc1` it was 9.3 µg/mL (≈ 38.1 µM).
In the case of `COc1cc(NC(=O)c2ccccn2)cc(OC)c1OC` it was more than 43.2 µg/mL; in that of `Cc1ccc(NC(/C=C/N(C)C)=C/C(=O)C(F)(F)F)c(C)c1`, 37.8 µg/mL (≈ 121 µM); in that of `Cc1cc(C)cc(OCC(=O)O/N=C(\N)Cc2ccc([N+](=O)[O-])cc2)c1`, 20.4 µg/mL (≈ 57.1 µM).
With `COc1ccccc1NS(=O)(=O)c1cccc(NC(=O)c2cncc(Br)c2)c1` the figure was 6.4 µg/mL (≈ 13.8 µM); with `O=C(OCC(=O)N1CCCC1=O)c1ccc(O)cc1O`, more than 41.9 µg/mL; with `COC(=O)c1cc(NC(=O)c2cccnc2)ccc1N1CCOCC1`, more than 51.2 µg/mL.
Regarding `Cc1ccc(O)c(NC(=O)c2cc(-c3ccc(F)cc3)on2)c1`, the kinetic solubility was less than 0.3 µg/mL.
For the compound `O=C1Nc2ccc(Cl)cc2C12OCCCO2`, the kinetic solubility was 3.2 µg/mL (≈ 13.4 µM).
With `Nc1cc(=O)[nH]c(SCC(=O)Nc2cc(S(=O)(=O)N3CCCCCC3)ccc2Cl)n1` the figure was 5.4 µg/mL (≈ 11.4 µM).
With `COC(=O)c1cc(C(=O)OCC(=O)N2CCCCC2)cc([N+](=O)[O-])c1` the figure was more than 52.5 µg/mL; with `O=C(c1ccc(F)cc1Cl)N1CCC2(CC1)OCCO2`, more than 45 µg/mL; with `O=C(COC(=O)c1ccccc1O)NCc1ccco1`, more than 41.3 µg/mL.
`COc1cccc(OCC(=O)Nc2ccncc2)c1` had a solubility (kinetic) of more than 38.7 µg/mL.
In the case of `Cc1noc(C)c1S(=O)(=O)Nc1ccccc1Oc1ccccc1` it was 37.5 µg/mL (≈ 109 µM).
In the case of `O=c1ccnc(SCCc2ccc([N+](=O)[O-])cc2)[nH]1` it was 21.6 µg/mL (≈ 77.9 µM); in that of `O=C(NC(=O)c1ccc(C(F)(F)F)cc1)Nc1ccc(-c2cnco2)cc1`, 2.8 µg/mL (≈ 7.46 µM); in that of `COc1cccc(-c2noc(CCCC(=O)N3CCOCC3)n2)c1`, more than 49.7 µg/mL.
In turn, `COc1cc(OC)nc(Oc2cccc(Cl)c2C)n1` returned a solubility (kinetic) of 1.5 µg/mL (≈ 5.34 µM).
With `Cc1ccc(NC(=O)Cc2ccccc2)cc1S(=O)(=O)N1CCOCC1` the figure was more than 56.2 µg/mL.
`CCOc1ccc(NC(=O)CCNC(=O)c2ccco2)cc1` showed a solubility (kinetic) of more than 45.3 µg/mL.
For the compound `Cc1ccc(S(=O)(=O)NCCC(=O)NCCc2ccc(S(N)(=O)=O)cc2)cc1C`, the solubility (kinetic) was more than 65.9 µg/mL.
With `CCOc1ccc2[nH]c3c(NCCC(C)C)ncnc3c2c1` the figure was 0.6 µg/mL (≈ 2.01 µM).
The compound `CN(Cc1ccccc1)C(=O)c1ccc(COc2ccccc2)cc1` displayed a solubility (kinetic) of 4.5 µg/mL (≈ 13.6 µM).
With `Cc1ccc2cccc(OC(=O)/C=C\c3ccccc3)c2n1` the figure was 16.8 µg/mL (≈ 58.1 µM); with `CCOc1ccc(C(C)=O)cc1CN1C(=O)C(=O)N(CC)C1=O`, 41.5 µg/mL (≈ 130 µM).
In the case of `CCC(C)[C@H](NC(=O)NCCC1=CCCCC1)C(=O)O` (some centres not stated) it was 38.2 µg/mL (≈ 135 µM); in that of `Cn1c(O)c(C=Nc2ccccc2-c2ccccc2)c(=O)n(C)c1=O`, less than 0.2 µg/mL.
In the case of `Cc1cccc(NC(=O)CSc2nc3ccccc3c(=O)n2C)c1` it was 0.5 µg/mL (≈ 1.47 µM).
`Oc1ccccc1Oc1ncc(Br)c(Cl)n1` gave a kinetic solubility of more than 45.2 µg/mL.
On to `O=S(=O)(NCCNc1nccc(C(F)(F)F)n1)c1ccccc1`, for which the solubility (kinetic) is 50.2 µg/mL (≈ 145 µM).
Regarding `NC(=O)C1CCN(C(=O)NC(=O)c2ccccc2)CC1`, the kinetic solubility is more than 41.3 µg/mL.
With `Cc1ccc(NC(=O)COCC(=O)Nc2ccc(C)cc2)cc1` the figure was 3.1 µg/mL (≈ 9.92 µM).
For the compound `COc1ccc(CNC(=O)COC(=O)[C@@H]2CCCN2C(=O)c2cccs2)cc1`, the kinetic solubility was more than 60.4 µg/mL.
The compound `CSc1ccccc1NC(=O)CN1CCCCC1` came in with a solubility (kinetic) of 35.8 µg/mL (≈ 135 µM).
In the case of `CC(C)N(Cc1cc2ccccc2[nH]c1=O)C(=O)c1ccco1` it was more than 46.6 µg/mL; in that of `CC(C)N1CCN(Cc2ccc3c(c2)OCCO3)CC1CCO` (configuration not stated), 45.5 µg/mL (≈ 142 µM).
On to `O=C1CCCN=C(Nc2ccc(F)c(Cl)c2)S1`, for which the kinetic solubility was 3.1 µg/mL (≈ 11.4 µM).
In the case of `C=CCn1c(C(O)c2ccccc2)nc2ccccc21` (configuration not stated) it was 24.2 µg/mL (≈ 91.6 µM); in that of `CCOC(=O)Cn1cc(Cl)c(=O)c(Cl)c1`, 35.8 µg/mL (≈ 143 µM).
For `COc1ccc(C(CCNCc2ccc(OC)c(OC)c2)c2ccc(F)cc2)cc1` (configuration not stated), the solubility (kinetic) was more than 61.4 µg/mL.
In the case of `O=C(c1ccc(Cl)c([N+](=O)[O-])c1)N1CCCc2ccccc21`, the solubility (kinetic) amounted to 23.7 µg/mL (≈ 74.8 µM).
With `O=C(Cc1ccc([N+](=O)[O-])cc1)Nc1ccc(Cl)cc1` the figure was 4.5 µg/mL (≈ 15.5 µM).
With `Cl.OC(CNCc1ccc(Cl)c(Cl)c1)c1ccccc1` (configuration not stated) the figure was 47.7 µg/mL.
As to `COc1ccc(C(=O)NCCNc2ccc([N+](=O)[O-])cc2)cc1`, the kinetic solubility was determined as 5 µg/mL (≈ 15.9 µM).
In the case of `O=C(c1ccc(=O)oc1)N1CCC(C(O)(c2ccccc2)c2ccccc2)CC1` it was 57.3 µg/mL (≈ 147 µM).
`Cc1cccc(Nc2c([N+](=O)[O-])c(=O)oc3ccccc23)c1` yielded a solubility (kinetic) of less than 0.3 µg/mL.
With `O=C(C1CC(=O)N(c2ccccc2F)C1)N1CCOCC1` (configuration not stated) the figure was more than 43.8 µg/mL; with `Cc1cccc(NC(=S)NCCc2ccc(Cl)cc2)c1C`, 0.6 µg/mL (≈ 1.88 µM); with `CSc1ccccc1NC(=O)CN(C)C(=O)COc1ncnc2ccccc12`, 45.1 µg/mL (≈ 114 µM).
For `N#Cc1cc([N+](=O)[O-])ccc1N1CCN(c2ccccc2O)CC1`, the solubility (kinetic) is 2.4 µg/mL (≈ 7.4 µM).
The compound `Cc1c(NS(=O)(=O)c2cccc(C(=O)N3CCC(C(N)=O)CC3)c2)c(=O)n(-c2ccccc2)n1C` showed a solubility (kinetic) of more than 74.6 µg/mL.
Consider `Nc1nc(NCC2CCCO2)nc(Nc2ccccc2F)c1[N+](=O)[O-]` (configuration not stated), for which the solubility (kinetic) was found to be 0.6 µg/mL (≈ 1.72 µM).
The compound `CC(=O)c1c(C)[nH]c(C(=O)NCCc2c[nH]c3ccccc23)c1C` returned a kinetic solubility of 1.4 µg/mL (≈ 4.33 µM).
With `O=C(NCCCN1CCOCC1)c1ccc(Cl)cc1Cl` the figure was more than 47.6 µg/mL.
Compound `O=C(CNC(=O)c1cccs1)NCC(=O)OCC(=O)c1ccccc1` displayed a solubility (kinetic) of more than 54.1 µg/mL.
With `COc1ccc(NC(=O)c2cccc3ccccc23)cc1` the figure was 1.4 µg/mL (≈ 5.05 µM).
